Results reported in patent US11542263B2 (NeuroCycle Therapeutics, Inc., priority 2018, dated 2023).
Where two headings read alike, the source gives them in different places.

Experiments:
[1] = Accelerated stability testing (HPLC assay and purity); assay type: physicochemical; conditions: for Assay (%): assay criterion 95%-105%
Experimental: The stability of Phosphate Polymorphic Form and Free Base Polymorphic Form A were evaluated under accelerated conditions.
Appropriately 2 mg of compounds were accurately weighed into a glass vial, then added diluents (ACN/water, 50/50) and sonicated for 2 minutes to dilute the target concentration of 0.2 mg/mL. The solution was equilibrated to room temperature and then the purity of the compounds was determined by HPLC.

[2] = Pharmacokinetics in rats; assay type: in vivo, Sprague-dawley rats; conditions: rat, mean
Experimental: To evaluate the pharmacokinetics (PK) of Phosphate Polymorphic Form A, suspensions or solutions were dosed by either oral gavage (0.5% methyl cellulose) or IV (60% PEG400/40% saline) in normal, healthy, male Sprague-dawley rats with serial blood collection focused on the first 48 hours of exposure. Rats were dosed with vehicle or test compounds at 1 mg/kg (IV) or 2 mg/kg (PO). Approximately 0.2 mL blood was collected at each time point. All blood samples were collected jugular vein puncture. All blood samples were transferred into plastic microcentrifuge tubes containing 5 μL of EDTA-K2 as anti-coagulant or pre-chilled commercial EDTA-K2 tubes and placed on wet ice until centrifugation. Harvested blood samples were centrifuged within 30 min of collection at 7,000 rpm for 10 minutes. The extracts were analyzed for compound concentration by LC/MS/MS. Data were analyzed with Phoenix WinNonlin 6.3 using the IV-Noncompartmental model 201 (IV bolus input) and PO-Noncompartmental model 200 (extravascular input) methods.

[3] = Intrinsic dissolution rate in SGF; assay type: physicochemical; conditions: 37° C., 100 rpm, linear scope within 2 to 120 min
Experimental: About 100 mg of Free Base Polymorphic Form A or Phosphate Polymorphic Form A was weighed into the intrinsic dissolution apparatus and the sample compressed for 1 minute with a compression force of ˜4 MPa to form a compacted pellet within the stainless-steel die. All loose powder was removed from the surface of the die. The intrinsic dissolution shaft was connected with the stainless-steel die and tightened so only one surface of the pellet was exposed (surface area=0.496 cm^2). The shaft in the spindle was adjusted to ensure the exposed surface of the compacted tablet was ˜3.8 cm from the bottom of the vessel when lowered. The temperature of chamber water was set at 37° C.±0.5° C., the shaft rotation at 100 rpm and the sampling time points at 2, 5, 10, 15, 30, 45, 60, 120 min. SGF was used as dissolution medium (900 mL). At each time point, solution samples were filtered, and the supernatant was analyzed by HPLC-UV.

[4] = Solubility in aqueous buffers and simulated fluids, 24 h, HPLC; assay type: physicochemical; conditions: for solubility at 24 h: 22.5 °C, thermodynamic from solid, read-out: Measured Conc. (solubility); for solubility at 24 h / Measured Conc. (solubility): ~24 h
Experimental: About 2 mg of test article was added to a 1.5 mL vials which contained ˜1.0 mL of one medium listed in Table 7 and Table 8, which was then sealed. The mixtures were stirred at ˜20-25° C. for ˜24 hours. After that, the mixture was filtered by 0.45 μm filter membrane and then the supernatant was analyzed by HPLC.

[5] = Hygroscopicity by dynamic vapor sorption (DVS); assay type: physicochemical
Experimental: The hygroscopicity of Phosphate Polymorph Form A was measured by Dynamic vapor sorption (DVS). […] After DVS, XRPD confirmed that the crystalline form was retained (see FIG. 19).

[6] = Approximate solubility of TPA023B Phosphate in solvents (stepwise solvent addition); assay type: physicochemical; conditions: thermodynamic from solid
Experimental: The total amount of solvent was recorded to calculate the approximate solubility in these solvents.

[7] = male, Sprague-Dawley, plasma, IV 1 mg/kg
[8] = male, Sprague-Dawley, plasma, PO 2 mg/kg

Compound: CC(C)(O)c1cnn2c(-c3ccc(F)c(-c4c(F)cccc4C#N)c3)cnc2n1.O=P(O)(O)O [Phosphate Polymorphic Form A, 2′,6-difluoro-5′-[3-(1-hydroxy-1-methylethyl)-imidazo[1,2-b][1,2,4]triazin-7-yl]biphenyl-2-carbonitrile]
- Purity (%) ([1]; 40° C./75% RH (open), 1 week): 99.02%
- Assay (%) ([1]; 40° C./75% RH (open), 1 week): 97.12%
- Purity (%) ([1]; 80° C. (open), 1 week): 98.94%
- Assay (%) ([1]; 80° C. (open), 1 week): 95.99%
- Purity (%) ([1]; Initial): 98.91%
- Assay (%) ([1]; Initial): 104.60%
- Purity (%) ([1]; Light, ~50 h): 97.55%
- Assay (%) ([1]; Light, ~50 h): 95.25%
- AUC(0-inf) [2, 7]: 12100 ng·h/mL
- AUC(0-t) [2, 7]: 11300 ng·h/mL
- clearance [2, 7]: 1.41 mL/min/kg
- half-life [2, 7]: 12.4 h
- Vd ([2]; male, Sprague-Dawley, plasma, IV 1 mg/kg, read-out: Vdss): 1.49 L/kg
- AUC(0-inf) [2, 8]: 16000 ng·h/mL
- AUC(0-t) [2, 8]: 15000 ng·h/mL
- Cmax [2, 8]: 794 ng/mL
- Tmax [2, 8]: 7 h
- bioavailability [2, 8]: 66.1%
- half-life [2, 8]: 11.1 h
- AUCExtra ([2]; PO 2 mg/kg): 6.25%
- intrinsic dissolution rate [3]: 0.184 mg cm^−2 min^−1
- solubility at 24 h ([4]; aqueous buffer, pH 3.0 citrate buffer (100 mM), initial pH 3.05, LOQ: 0.1 μg/mL): 0.16 µg/mL
- solubility at 24 h ([4]; pH 1.8, simulated gastric fluid, SGF, initial pH 1.80, ~20-25° C.): 3.85 µg/mL
- solubility at 24 h ([4]; simulated gastric fluid, pH 1.2 Hydrochloric Acid Buffer (50 mM), initial pH 1.17, ~20-25° C.): 22.9 µg/mL
- solubility at 24 h ([4]; FaSSIF, initial pH 6.51, ~20-25° C.): 7.14 µg/mL
- solubility at 24 h ([4]; FeSSIF, initial pH 5.00, ~20-25° C.): 50.7 µg/mL
- solubility at 24 h ([4]; Purified water, initial pH 7.02, ~20-25° C., target 2 mg/mL): 0.4 µg/mL
- pH value of supernatant ([4]; FaSSIF, initial pH 6.51): 6.09
- pH value of supernatant ([4]; FeSSIF, initial pH 5.00): 4.94
- pH value of supernatant ([4]; Purified water, initial pH 7.02): 2.62
- pH value of supernatant ([4]; SGF, initial pH 1.80): 1.67
- solubility compared with Free Base Polymorphic Form A ([4]; in SGF, FaSSIF and FeSSIF): higher solubility
- pH value of supernatant ([4]; pH 1.2 Hydrochloric Acid Buffer (50 mM), initial pH 1.17): 0.99
- pH value of supernatant ([4]; pH 3.0 citrate buffer (100 mM), initial pH 3.05): 2.96
- pH value of supernatant ([4]; pH 4.5 citrate buffer (100 mM), initial pH 4.44): 4.41
- Measured Conc. (solubility) ([4]; pH 4.5 citrate buffer (100 mM), initial pH 4.44, LOQ: 0.1 μg/mL): <LOQ
- pH value of supernatant ([4]; pH 7.4 PBS (50 mM), initial pH 7.40): 7.09
- Measured Conc. (solubility) ([4]; pH 7.4 PBS (50 mM), initial pH 7.40, LOQ: 0.1 μg/mL): <LOQ
- pH value of supernatant ([4]; pH 9.0 USP Buffer (50 mM), initial pH 8.94): 8.46
- Measured Conc. (solubility) ([4]; pH 9.0 USP Buffer (50 mM), initial pH 8.94, LOQ: 0.1 μg/mL): <LOQ
- reversible mass increase (hygroscopicity) [5]: about 1.08%
- solubility ([6]; aqueous with cosolvent or surfactant or cyclodextrin, Acetone/H2O (1/1, v/v), 50° C.): 2000 to 10000 µg/mL
- solubility ([6]; aqueous with cosolvent or surfactant or cyclodextrin, Acetone/H2O (1/1, v/v), RT): < 2000 µg/mL
- solubility ([6]; aqueous with cosolvent or surfactant or cyclodextrin, EtOH/H2O (1/1, v/v), 50° C.): < 2000 µg/mL
- solubility ([6]; aqueous with cosolvent or surfactant or cyclodextrin, EtOH/H2O (1/1, v/v), RT): < 2000 µg/mL
- solubility ([6]; organic solvent or mixture, 1,4-Dioxane, 50° C.): 20000 to 25000 µg/mL
- solubility ([6]; organic solvent or mixture, 1,4-Dioxane, RT): 20000 to 25000 µg/mL
- solubility ([6]; organic solvent or mixture, Acetone, 50° C.): < 10000 µg/mL
- solubility ([6]; organic solvent or mixture, Acetone, RT): 6000 to 10000 µg/mL
- solubility ([6]; organic solvent or mixture, Acetonitrile (ACN), 50° C.): 2000 to 10000 µg/mL
- solubility ([6]; organic solvent or mixture, Acetonitrile (ACN), RT): < 2000 µg/mL
- solubility ([6]; organic solvent or mixture, DCM, 50° C.): 10000 to 50000 µg/mL
- solubility ([6]; organic solvent or mixture, DCM, RT): 8000 to 10000 µg/mL
- solubility ([6]; organic solvent or mixture, DMF, RT): > 100000 µg/mL
- solubility ([6]; organic solvent or mixture, DMSO, RT): > 100000 µg/mL
- solubility ([6]; organic solvent or mixture, EtOAc, 50° C.): < 2000 µg/mL
- solubility ([6]; organic solvent or mixture, EtOAc, RT): < 2000 µg/mL
- solubility ([6]; organic solvent or mixture, Ethanol, 50° C.): 10000 to 50000 µg/mL
- solubility ([6]; organic solvent or mixture, Ethanol, RT): < 8000 µg/mL
- solubility ([6]; organic solvent or mixture, Heptane, 50° C.): < 2000 µg/mL
- solubility ([6]; organic solvent or mixture, Heptane, RT): < 2000 µg/mL
- solubility ([6]; organic solvent or mixture, Isopropanol, 50° C.): 10000 to 50000 µg/mL
- solubility ([6]; organic solvent or mixture, Isopropanol, RT): < 8000 µg/mL
- solubility ([6]; organic solvent or mixture, MEK, 50° C.): < 10000 µg/mL
- solubility ([6]; organic solvent or mixture, MEK, RT): 2000 to 4000 µg/mL
- solubility ([6]; organic solvent or mixture, MTBE, 50° C.): < 2000 µg/mL
- solubility ([6]; organic solvent or mixture, MTBE, RT): < 2000 µg/mL
- solubility ([6]; organic solvent or mixture, Methanol, 50° C.): 10000 to 50000 µg/mL
- solubility ([6]; organic solvent or mixture, Methanol, RT): 8000 to 10000 µg/mL
- solubility ([6]; organic solvent or mixture, THF, 50° C.): < 50000 µg/mL
- solubility ([6]; organic solvent or mixture, THF, RT): 20000 to 50000 µg/mL
- solubility ([6]; organic solvent or mixture, Toluene, 50° C.): < 2000 µg/mL
- solubility ([6]; organic solvent or mixture, Toluene, RT): < 2000 µg/mL
- solubility ([6]; water, H2O, 50° C.): < 2000 µg/mL
- solubility ([6]; water, H2O, RT): < 2000 µg/mL
